Assays:
FXa = FXa (Homo sapiens, UniProt P00742); test: Factor Xa inhibition (FXa-IC50, pharmacological data); assay type: biochemical
Description: The inhibition of factor Xa by the compounds according to the invention and the measurement of the anticoagulant and antithrombotic activity can be determined by conventional in-vitro or in-vivo methods. A suitable method is described, for example, by J. Hauptmann et al. in Thrombosis and Haemostasis 1990, 63, 220-223.
The inhibition of factor Xa can be measured, for example by the method of T. Hara et al. in Thromb. Haemostas. 1994, 71, 314-319.

TF/FVIIa = target: T1, TF/FVIIa (Homo sapiens, UniProt P08709); test: TF/factor VIIa inhibition (TF/FVIIa-IC50, pharmacological data); assay type: biochemical
T1 construct: Coagulation factor VIIa initiates the extrinsic part of the coagulation cascade
T1 sequence (P08709 213-466 limits assumed): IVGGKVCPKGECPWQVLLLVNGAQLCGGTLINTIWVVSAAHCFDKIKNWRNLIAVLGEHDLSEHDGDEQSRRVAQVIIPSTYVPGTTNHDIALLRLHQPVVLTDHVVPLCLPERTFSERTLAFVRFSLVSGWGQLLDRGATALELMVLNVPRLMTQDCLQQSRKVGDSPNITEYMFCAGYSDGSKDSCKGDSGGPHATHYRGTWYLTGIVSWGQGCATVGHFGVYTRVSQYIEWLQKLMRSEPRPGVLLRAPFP
T1 sequence (P08709 61-212 limits assumed): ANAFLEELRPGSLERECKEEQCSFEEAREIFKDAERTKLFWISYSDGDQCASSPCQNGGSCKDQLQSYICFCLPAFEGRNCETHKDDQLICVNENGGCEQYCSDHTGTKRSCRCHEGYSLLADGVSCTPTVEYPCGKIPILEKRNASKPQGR
T1 sequence (P13726 33-295 partner): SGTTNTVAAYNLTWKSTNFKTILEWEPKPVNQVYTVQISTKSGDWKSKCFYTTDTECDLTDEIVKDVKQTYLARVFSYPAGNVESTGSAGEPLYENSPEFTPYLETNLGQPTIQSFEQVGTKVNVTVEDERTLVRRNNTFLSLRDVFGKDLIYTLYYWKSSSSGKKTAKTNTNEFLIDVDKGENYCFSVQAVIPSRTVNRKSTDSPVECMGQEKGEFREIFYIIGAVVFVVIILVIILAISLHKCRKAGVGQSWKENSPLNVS
Description: The inhibition of factor VIIa by the compounds according to the invention and the measurement of the anticoagulant and antithrombotic activity can be determined by conventional in-vitro or in-vivo methods. A conventional method for the measurement of the inhibition of factor VIIa is described, for example, by H. F. Ronning et al. in Thrombosis Research 1996, 84, 73-81.

Chain of FXa (P00742 235-488 limits assumed): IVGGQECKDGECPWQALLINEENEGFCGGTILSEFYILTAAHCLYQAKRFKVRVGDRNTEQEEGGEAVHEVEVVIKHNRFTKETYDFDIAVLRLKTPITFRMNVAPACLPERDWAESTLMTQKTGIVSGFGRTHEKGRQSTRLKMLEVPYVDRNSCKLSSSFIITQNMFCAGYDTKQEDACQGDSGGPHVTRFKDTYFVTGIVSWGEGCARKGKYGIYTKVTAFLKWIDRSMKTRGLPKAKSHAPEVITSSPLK
Chain of FXa (P00742 41-179 limits assumed): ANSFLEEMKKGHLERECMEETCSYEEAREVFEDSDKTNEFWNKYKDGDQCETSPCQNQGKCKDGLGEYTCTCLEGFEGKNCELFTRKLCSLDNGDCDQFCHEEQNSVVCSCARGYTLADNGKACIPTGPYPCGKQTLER

Structure (SMILES) | IC50 (FXa) | IC50 (TF/FVIIa) | melting point
C#Cc1ccc(NC(=O)N[C@H](CC(C)C)C(=O)Nc2ccc(N3CCNC3=N)cc2)cc1 [AC, (R)-2-[3-(4-ethynylphenyl)ureido]-N-[4-(2-iminoimidazolidin-1-yl)phenyl]4-methylvaleramide] | 46 nM | 240 nM | 
C#Cc1ccc(NC(=O)N[C@H](CO)C(=O)Nc2ccc(N3CCOCC3=O)cc2)cc1 [Compound 5] | 42 nM | 33 nM | 
C#Cc1ccc(NC(=O)N[C@H](COC)C(=O)Nc2ccc(N3CCOCC3=O)cc2)cc1 [Compound 6] | 22 nM | 37 nM | 

The remaining compounds from weak to strong by IC50 (FXa), led by results:

IC50 (FXa) | IC50 (TF/FVIIa) | melting point | Structure (SMILES)
36 nM | 41 nM |  | C#Cc1ccc(NC(=O)N[C@H](CC(C)C)C(=O)Nc2ccc(N3CCOCC3=O)cc2)cc1 [AB, (R)-2-[3-(4-ethynylphenyl)ureido]-N-[4-(3-oxomorpholin-4-yl)phenyl]4-methylvaleramide]
25 nM | 88 nM | 182 °C | C#Cc1ccc(NC(=O)N[C@H](CCC)C(=O)Nc2ccc(N3CCOCC3=O)cc2)cc1 [AA, (R)-2-[3-(4-ethynylphenyl)ureido]-N-[4-(3-oxomorpholin-4-yl)-phenyl]valeramide]

Source: patent US20060084648A1, “Ethynyl derivatives as factor xa inhibitors” (Merck Patent GmbH, priority 2003, published 2006)
